Among the data in PubChem BioAssay AID246 (DTP/NCI, 2004) are T/C values, retold here.

SMILES strings stand for the structures. Where “and” joins values, the source holds several entries; their conditions need not be identical. Identical values can stand only once. Inconclusive results and toxic doses are left out.

The assay concerns BDF1 mice, P1081 chloroleukemia ip, survival T/C. Kind of assay: NCI In Vivo Anticancer Drug Screen. Data for tumor model P1081 Chloroleukemia (intraperitoneal) in B6D2F1 (BDF1) mice. The note with it: endpoint: mean survival time, higher = longer survival. How it is done: The antitumor activity of compounds was measured in mice bearing transplantable tumors. Survival or tumor size were measured and the results are expressed as the measurement made in the treated group (T) divided by the measurement made in the vehicle treated control group (C). The tumor model used in this assay is P1081 Chloroleukemia (intraperitoneal) in B6D2F1 (BDF1) mice

Where [1] appears, read: dose: 25.0 mg/kg/injection, schedule: Q01DX010 (ip), vehicle: saline.

On to `O=C(C[N+]12CN3CN(CN(C3)C1)C2)c1ccc(Cl)cc1`, for which the T/C was 113 % of control and 98 % of control (dose: 37.5 mg/kg/injection, schedule: Q01DX010 (ip), vehicle: saline); 107 % of control and 112 % of control (dose: 75.0 mg/kg/injection, schedule: Q01DX010 (ip), vehicle: saline); 112 % of control and 118 % of control (dose: 150.0 mg/kg/injection, schedule: Q01DX010 (ip), vehicle: saline); 110 % of control and 114 % of control (dose: 300.0 mg/kg/injection, schedule: Q01DX010 (ip), vehicle: saline).

Regarding `CCCNc1ncnc2[nH]ncc12`, the T/C was 100 % of control (dose: 3.13 mg/kg/injection, schedule: Q01DX010 (ip), vehicle: saline); 90 % of control (dose: 5.0 mg/kg/injection, schedule: Q01DX Z (ip), vehicle: water); 100 % of control (dose: 6.25 mg/kg/injection, schedule: Q01DX010 (ip), vehicle: saline); 93 % of control (dose: 10.0 mg/kg/injection, schedule: Q01DX Z (ip), vehicle: water); 102 % of control (dose: 20.0 mg/kg/injection, schedule: Q01DX Z (ip), vehicle: water); 90 % of control under setting [1].

With `CN(C)CC(=O)c1ccc(O)c(O)c1`, the T/C runs as follows: (dose: 16.0 mg/kg/injection, schedule: Q01DX Z (ip), vehicle: saline) 114 % of control; (dose: 31.0 mg/kg/injection, schedule: Q01DX Z (ip), vehicle: saline) 112 % of control; (dose: 62.0 mg/kg/injection, schedule: Q01DX Z (ip), vehicle: saline) 118 % of control; (dose: 125.0 mg/kg/injection, schedule: Q01DX Z (ip), vehicle: saline) 115 % of control.

For `CCN(CC)CCNc1ccc(C)c2sc3ccccc3c(=O)c12`, the T/C is 87 % of control (dose: 1.56 mg/kg/injection, schedule: Q01DX Z (ip), vehicle: methylcellulose (MC)); 88 % of control (dose: 6.25 mg/kg/injection, schedule: Q01DX Z (ip), vehicle: methylcellulose (MC)); 90 % of control (dose: 6.3 mg/kg/injection, schedule: Q01DX Z (ip), vehicle: methylcellulose (MC)); 91 % of control (dose: 12.5 mg/kg/injection, schedule: Q01DX Z (ip), vehicle: methylcellulose (MC)); 110 % of control and 122 % of control under setting [1]; 95 % of control (dose: 25.0 mg/kg/injection, schedule: Q01DX Z (ip), vehicle: methylcellulose (MC)). Further, the T/C was 150 % of control (dose: 50.0 mg/kg/injection, schedule: Q01DX010 (ip), vehicle: saline); 96 % of control (dose: 50.0 mg/kg/injection, schedule: Q01DX Z (ip), vehicle: methylcellulose (MC)); 122 % of control and 95 % of control (dose: 100.0 mg/kg/injection, schedule: Q01DX010 (ip), vehicle: saline); 101 % of control (dose: 100.0 mg/kg/injection, schedule: Q01DX Z (ip), vehicle: methylcellulose (MC)).

With `CCC(=O)O[C@H]1CC[C@H]2[C@@H]3CCC4=CC(=O)CC[C@]4(C)[C@H]3CC[C@]12C`, the T/C reads like this: (dose: 31.25 mg/kg/injection, schedule: Q01DX Z (sc), vehicle: steriod suspending solution) 92 % of control; (dose: 62.5 mg/kg/injection, schedule: Q01DX Z (sc), vehicle: steriod suspending solution) 111 % of control; (dose: 125.0 mg/kg/injection, schedule: Q01DX Z (sc), vehicle: steriod suspending solution) 107 % of control and 116 % of control; (dose: 250.0 mg/kg/injection, schedule: Q01DX Z (sc), vehicle: steriod suspending solution) 107 % of control; (dose: 500.0 mg/kg/injection, schedule: Q01DX Z (sc), vehicle: steriod suspending solution) 95 % of control; (dose: 2000.0 mg/kg/injection, schedule: Q01DX Z (sc), vehicle: steriod suspending solution) 122 % of control.

In the case of `C[N+](C)(C)c1ncnc2nc[nH]c12`, the T/C reads like this: (dose: 3.1 mg/kg/injection, schedule: Q01DX Z (ip), vehicle: carboxymethylcellulose (CMC)) 94 % of control; (dose: 6.25 mg/kg/injection, schedule: Q01DX Z (ip), vehicle: carboxymethylcellulose (CMC)) 97 % of control; (dose: 12.5 mg/kg/injection, schedule: Q01DX Z (ip), vehicle: carboxymethylcellulose (CMC)) 100 % of control; (dose: 100.0 mg/kg/injection, schedule: Q01DX Z (ip), vehicle: carboxymethylcellulose (CMC)) 195 % of control.

On to `CCn1cnc2c(=S)nc[nH]c21`, for which the T/C was 112 % of control (dose: 7.75 mg/kg/injection, schedule: Q01DX Z (ip), vehicle: carboxymethylcellulose (CMC)); 101 % of control (dose: 15.5 mg/kg/injection, schedule: Q01DX Z (ip), vehicle: carboxymethylcellulose (CMC)); 110 % of control and 105 % of control (dose: 15.6 mg/kg/injection, schedule: Q01DX010 (ip), vehicle: saline); 105 % of control (dose: 31.0 mg/kg/injection, schedule: Q01DX Z (ip), vehicle: carboxymethylcellulose (CMC)); 100 % of control and 105 % of control (dose: 31.3 mg/kg/injection, schedule: Q01DX010 (ip), vehicle: saline); 110 % of control and 105 % of control (dose: 62.5 mg/kg/injection, schedule: Q01DX010 (ip), vehicle: saline). For the same molecule, the T/C runs as follows: (dose: 62.5 mg/kg/injection, schedule: Q01DX Z (ip), vehicle: carboxymethylcellulose (CMC)) 110 % of control; (dose: 63.0 mg/kg/injection, schedule: Q01DX Z (ip), vehicle: carboxymethylcellulose (CMC)) 98 % of control; (dose: 125.0 mg/kg/injection, schedule: Q01DX010 (ip), vehicle: saline) 115 % of control; (dose: 125.0 mg/kg/injection, schedule: Q01DX Z (ip), vehicle: carboxymethylcellulose (CMC)) 86 % of control.

In the case of `COC12C(COC(N)=O)C3=C(C(=O)C(C)=C(N)C3=O)N1CC1C2N1C` (configuration not stated), the T/C (dose: 0.63 mg/kg/injection, schedule: Q01DX Z (ip), vehicle: carboxymethylcellulose (CMC)) is 123 % of control; the T/C (dose: 1.25 mg/kg/injection, schedule: Q01DX Z (ip), vehicle: carboxymethylcellulose (CMC)) is 107 % of control; the T/C (dose: 2.5 mg/kg/injection, schedule: Q01DX Z (ip), vehicle: carboxymethylcellulose (CMC)) is 112 % of control; the T/C (dose: 5.0 mg/kg/injection, schedule: Q01DX Z (ip), vehicle: carboxymethylcellulose (CMC)) is 152 % of control.

As for `CN(C)c1ccc(/C=C\c2ccnc3ccccc23)cc1`, the T/C is 87 % of control (dose: 0.4 mg/kg/injection, schedule: Q01DX Z (ip), vehicle: water); 99 % of control (dose: 0.8 mg/kg/injection, schedule: Q01DX Z (ip), vehicle: water); 108 % of control and 122 % of control (dose: 1.6 mg/kg/injection, schedule: Q01DX Z (ip), vehicle: water); 99 % of control and 105 % of control (dose: 3.1 mg/kg/injection, schedule: Q01DX Z (ip), vehicle: water); 90 % of control and 94 % of control (dose: 6.25 mg/kg/injection, schedule: Q01DX Z (ip), vehicle: water); 118 % of control and 120 % of control (dose: 6.3 mg/kg/injection, schedule: Q01DX Z (ip), vehicle: water). The T/C is 112 % of control and 94 % of control and 105 % of control (dose: 12.5 mg/kg/injection, schedule: Q01DX Z (ip), vehicle: water); 118 % of control and 88 % of control and 90 % of control (dose: 25.0 mg/kg/injection, schedule: Q01DX Z (ip), vehicle: water).

`O=c1cnn(C2OC(CO)C(O)C2O)c(=O)[nH]1` (configuration not stated): the T/C by setting is: (dose: 62.5 mg/kg/injection, schedule: Q01DX Z (ip), vehicle: water) 94 % of control; (dose: 125.0 mg/kg/injection, schedule: Q01DX Z (ip), vehicle: water) 120 % of control and 90 % of control; (dose: 250.0 mg/kg/injection, schedule: Q01DX Z (ip), vehicle: water) 116 % of control and 121 % of control; (dose: 500.0 mg/kg/injection, schedule: Q01DX Z (ip), vehicle: water) 120 % of control; (dose: 1000.0 mg/kg/injection, schedule: Q01DX Z (ip), vehicle: water) 92 % of control; (dose: 1600.0 mg/kg/injection, schedule: Q01DX010 (ip), vehicle: saline) 100 % of control.
